By IC50 is commonly meant the concentration at which inhibition is half-maximal.

The structures appear in SMILES notation. The source made the active and inactive calls. The rule behind the calls is not given here. Where only a bound is given, the exact number is not on record here.

The target of assay [1] is T1, Tyrosine-protein kinase ITK/TSK (Homo sapiens, UniProt Q08881).
T1 sequence (Q08881 whole entry): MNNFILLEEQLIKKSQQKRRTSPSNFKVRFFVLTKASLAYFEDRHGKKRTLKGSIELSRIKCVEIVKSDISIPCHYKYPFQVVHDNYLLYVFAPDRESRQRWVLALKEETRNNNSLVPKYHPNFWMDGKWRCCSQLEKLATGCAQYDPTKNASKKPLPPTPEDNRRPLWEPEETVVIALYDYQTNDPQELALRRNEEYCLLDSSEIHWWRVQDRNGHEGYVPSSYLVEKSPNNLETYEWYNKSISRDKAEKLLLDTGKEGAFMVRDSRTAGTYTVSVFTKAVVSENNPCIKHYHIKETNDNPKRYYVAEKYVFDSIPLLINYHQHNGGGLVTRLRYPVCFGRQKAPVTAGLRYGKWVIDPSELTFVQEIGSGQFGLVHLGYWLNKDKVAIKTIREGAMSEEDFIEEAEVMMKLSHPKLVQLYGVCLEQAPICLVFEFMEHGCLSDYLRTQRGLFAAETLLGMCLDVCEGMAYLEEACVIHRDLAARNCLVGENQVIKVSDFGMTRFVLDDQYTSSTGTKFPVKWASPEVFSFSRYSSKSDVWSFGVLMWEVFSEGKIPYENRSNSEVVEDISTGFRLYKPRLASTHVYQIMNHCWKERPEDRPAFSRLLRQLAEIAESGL
The assay is described as follows: Inhibition of GST-tagged full length recombinant ITK after 2 hrs by IMAP assay.

The target in the next assay is Insulin receptor (Homo sapiens, UniProt P06213). The assay is described as follows: Inhibition of GST-tagged recombinant INSR catalytic domain expressed in baculovirus-infected Sf21 cells after 80 mins by IMAP assay.
Sequence of Insulin receptor (P06213 28-758 limits assumed): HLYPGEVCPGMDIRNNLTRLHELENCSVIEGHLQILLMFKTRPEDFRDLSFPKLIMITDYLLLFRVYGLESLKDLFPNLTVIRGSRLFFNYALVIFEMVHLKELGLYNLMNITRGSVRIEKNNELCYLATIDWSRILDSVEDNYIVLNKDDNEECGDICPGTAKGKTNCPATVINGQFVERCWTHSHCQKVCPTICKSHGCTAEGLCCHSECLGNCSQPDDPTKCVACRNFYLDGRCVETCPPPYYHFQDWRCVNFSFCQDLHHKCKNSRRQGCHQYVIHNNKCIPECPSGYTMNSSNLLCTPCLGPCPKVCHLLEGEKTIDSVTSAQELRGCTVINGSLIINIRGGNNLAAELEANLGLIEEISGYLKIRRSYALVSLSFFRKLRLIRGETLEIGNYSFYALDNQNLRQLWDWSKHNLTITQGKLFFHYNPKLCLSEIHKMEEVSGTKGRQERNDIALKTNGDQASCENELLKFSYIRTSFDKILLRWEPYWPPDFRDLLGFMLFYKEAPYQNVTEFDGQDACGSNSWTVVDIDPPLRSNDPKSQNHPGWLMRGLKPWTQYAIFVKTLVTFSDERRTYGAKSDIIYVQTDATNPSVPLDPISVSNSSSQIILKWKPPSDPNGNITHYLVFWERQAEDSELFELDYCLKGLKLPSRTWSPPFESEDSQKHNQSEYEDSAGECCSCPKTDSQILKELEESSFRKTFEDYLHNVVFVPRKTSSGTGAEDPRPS
Sequence of Insulin receptor (P06213 763-1382 limits assumed): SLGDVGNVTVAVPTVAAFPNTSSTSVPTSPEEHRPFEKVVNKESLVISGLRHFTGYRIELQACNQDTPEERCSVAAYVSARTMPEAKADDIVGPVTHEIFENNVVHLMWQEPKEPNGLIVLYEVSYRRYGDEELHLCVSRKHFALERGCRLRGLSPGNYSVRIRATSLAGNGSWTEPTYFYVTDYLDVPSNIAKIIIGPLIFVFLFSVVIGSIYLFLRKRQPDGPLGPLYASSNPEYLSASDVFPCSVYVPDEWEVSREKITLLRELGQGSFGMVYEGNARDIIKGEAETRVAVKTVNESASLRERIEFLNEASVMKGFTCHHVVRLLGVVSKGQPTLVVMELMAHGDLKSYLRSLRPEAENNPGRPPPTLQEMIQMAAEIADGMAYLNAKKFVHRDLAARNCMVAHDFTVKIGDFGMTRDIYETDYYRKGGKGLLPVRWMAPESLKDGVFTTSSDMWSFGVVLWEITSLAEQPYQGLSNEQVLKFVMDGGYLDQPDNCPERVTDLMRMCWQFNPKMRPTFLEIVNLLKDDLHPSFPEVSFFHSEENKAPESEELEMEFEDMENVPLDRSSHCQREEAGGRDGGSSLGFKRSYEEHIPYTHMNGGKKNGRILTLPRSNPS
In assay [2] the target is Cyclin-dependent kinase 2/cyclin E1 (Homo sapiens, UniProt P24941). The assay is described as follows: (§1) Inhibition of GST-tagged full length CDK2/Cyclin E after 40 mins by IMAP assay. The class given is protein-complex assay.
For assay [3], the target named is Glycogen synthase kinase-3 beta (Homo sapiens, UniProt P49841). Nature of the assay: Inhibition of GST-tagged full length GSK3-beta assessed as inhibition of ATP consumption after 60 mins by luminescence assay.
Sequence of Glycogen synthase kinase-3 beta (P49841 whole entry, the tested form may be a part): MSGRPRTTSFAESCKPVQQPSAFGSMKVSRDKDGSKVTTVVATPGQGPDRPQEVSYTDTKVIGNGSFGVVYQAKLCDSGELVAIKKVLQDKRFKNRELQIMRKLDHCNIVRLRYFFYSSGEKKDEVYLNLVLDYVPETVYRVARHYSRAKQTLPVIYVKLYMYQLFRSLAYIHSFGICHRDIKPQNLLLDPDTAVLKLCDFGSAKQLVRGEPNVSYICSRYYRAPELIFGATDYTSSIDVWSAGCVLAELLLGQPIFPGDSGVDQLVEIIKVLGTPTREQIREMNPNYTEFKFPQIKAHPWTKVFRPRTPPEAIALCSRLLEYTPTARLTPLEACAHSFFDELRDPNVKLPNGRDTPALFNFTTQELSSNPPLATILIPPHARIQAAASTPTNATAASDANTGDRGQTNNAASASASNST
Assay [4] can be described thus: Inhibition of histidine-tagged PKA catalytic domain after 40 mins by IMAP assay.
The target of assay [5] is RAC-alpha serine/threonine-protein kinase (Homo sapiens) (UniProt P31749). Nature of the assay: Inhibition of histidine-tagged full length AKT1 after 1 hr by IMAP assay.
Sequence of RAC-alpha serine/threonine-protein kinase (Homo sapiens) (P31749 whole entry): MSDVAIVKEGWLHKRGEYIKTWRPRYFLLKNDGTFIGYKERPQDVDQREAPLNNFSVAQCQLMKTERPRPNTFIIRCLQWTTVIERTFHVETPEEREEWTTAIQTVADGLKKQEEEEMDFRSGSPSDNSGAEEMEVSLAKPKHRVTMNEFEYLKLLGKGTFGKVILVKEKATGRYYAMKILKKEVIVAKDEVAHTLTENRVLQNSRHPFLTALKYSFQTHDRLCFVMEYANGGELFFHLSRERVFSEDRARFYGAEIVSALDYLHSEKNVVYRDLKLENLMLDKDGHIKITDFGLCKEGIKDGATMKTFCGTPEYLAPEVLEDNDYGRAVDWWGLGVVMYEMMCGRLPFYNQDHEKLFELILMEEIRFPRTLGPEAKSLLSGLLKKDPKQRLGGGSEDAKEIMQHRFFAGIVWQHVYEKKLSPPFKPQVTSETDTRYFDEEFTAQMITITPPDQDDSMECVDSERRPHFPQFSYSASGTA
For assay [6], the target named is Cyclin-dependent kinase 2/cyclin E1 (Homo sapiens, UniProt P24864+P24941). Described as §1. The class given is protein-complex assay.
Assay [7] is described as follows: Selectivity ratio of IC50 for GST-tagged recombinant INSR catalytic domain to IC50 for GST-tagged full length recombinant ITK.

For the compound `CC(C)CN(C)C(=O)c1ccc2c(CO)c(-c3n[nH]cc3-c3ccccc3)[nH]c2c1`, the IC50 in assay [1] was more than 100 µM.
Take `Cn1nccc1CNC(=O)c1ccc2cc(-c3cc(Cc4ccccc4)[nH]n3)[nH]c2c1`: the IC50 in assay [1] is 1 µM; at Insulin receptor it was 20 µM; in assay [2], 12.6 µM; in assay [3], “Not Active”; in assay [4] it was “Not Active”.
Regarding `Cn1nccc1CNC(=O)c1ccc2cc(-c3n[nH]cc3-c3ccccc3)[nH]c2c1`, the IC50 in assay [1] turned out to be 0.63 µM; on Insulin receptor, 9.33 µM; in assay [2] it was 0.16 µM; in assay [3] (read-out: IC50), 1.26 µM; in assay [4] (read-out: IC50), 7.08 µM.
Turning to `COCCNC(=O)c1ccc2cc(-c3cc(-c4ccccc4)[nH]n3)[nH]c2c1`, in assay [1], the IC50 came out at 3.16 µM.
With `CC(C)CN(C)C(=O)c1ccc2cc(-c3cc(Cc4ccccc4)[nH]n3)[nH]c2c1`, the IC50 in assay [1] is 0.56 µM; at Insulin receptor it was more than 100 µM; in assay [6], “Not Active”; in assay [3], “Not Active”; in assay [4] it was “Not Active”. Also, the inhibition entry in assay [5] is “inactive”.
As to `Cn1cncc1CNC(=O)c1ccc2c(CN3CCOCC3)c(-c3cc(Cc4ccccc4)[nH]n3)[nH]c2c1`, the IC50 in assay [1] is 0.63 µM.
Same read-out and setting: next, `COCCNC(=O)c1ccc2cc(-c3n[nH]cc3-c3ccccc3)[nH]c2c1`: 2.51 µM; `Cn1cncc1CNC(=O)c1ccc2cc(-c3cc(-c4ccccc4)[nH]n3)[nH]c2c1`: 1.26 µM; `CC(C)CN(C)C(=O)c1ccc2cc(-c3cc(-c4ccccc4)[nH]n3)[nH]c2c1`: 0.85 µM.
Consider `Cn1cncc1CNC(=O)c1ccc2cc(-c3n[nH]cc3-c3ccccc3)[nH]c2c1`, for which the concentration for half-maximal inhibition (IC50) in assay [1] was found to be 0.79 µM; at Insulin receptor, 7.08 µM; in assay [2], 0.63 µM; in assay [3] (read-out: IC50), 0.54 µM; in assay [4] (read-out: IC50) it was 10 µM.
As for `CC(C)CN(C)C(=O)c1ccc2c(CNCCCO)c(-c3n[nH]cc3-c3ccccc3)[nH]c2c1`, the IC50 in assay [1] is more than 100 µM.
`CC(C)CN(C)C(=O)c1ccc2cc(-c3n[nH]cc3-c3ccccc3)[nH]c2c1`: the half-maximal inhibitory concentration (IC50) in assay [1] was 0.33 µM; on Insulin receptor, more than 10 µM; in assay [2] it was 3.16 µM; in assay [3] (read-out: IC50), 6.76 µM; in assay [4], “Not Active”. In assay [7], the Ratio IC50 is more than 30.
As to `Cc1oncc1CNC(=O)c1ccc2cc(-c3n[nH]cc3-c3ccccc3)[nH]c2c1`, the 50% inhibitory concentration (IC50) in assay [1] came to 0.63 µM; at Insulin receptor, 5.75 µM; in assay [2] it was 0.4 µM; in assay [3] (read-out: IC50), 2.29 µM; in assay [4] (read-out: IC50), 5.01 µM.
Take `Cn1nccc1CNC(=O)c1ccc2c(CO)c(-c3cc(Cc4ccccc4)[nH]n3)[nH]c2c1`: in assay [1], the concentration for half-maximal inhibition (IC50) was 1.58 µM.
For `CNC(=O)c1ccc2c(CNCc3ccncc3)c(-c3cc(Cc4ccccc4)[nH]n3)[nH]c2c1`, the IC50 in assay [1] is 5 µM.
As for `Cc1oncc1CNC(=O)c1ccc2cc(-c3cc(-c4ccccc4)[nH]n3)[nH]c2c1`, the half-inhibitory concentration (IC50) in assay [1] was determined as 1.82 µM.
Still for that read-out and setting: next, `Cn1nccc1CNC(=O)c1ccc2cc(-c3cc(-c4ccccc4)[nH]n3)[nH]c2c1`: 3.16 µM; `COc1ccc(CNCc2c(-c3n[nH]cc3-c3ccccc3)[nH]c3cc(C(=O)N(C)CC(C)C)ccc23)cc1`: 20.4 µM.
For the compound `Cn1cncc1CNC(=O)c1ccc2cc(-c3cc(Cc4ccccc4)[nH]n3)[nH]c2c1`, the IC50 is 0.63 µM in assay [1]; 5.01 µM at Insulin receptor; 31.6 µM in assay [2]; “Not Active” in assay [3]; “Not Active” in assay [4].
Consider `CC(C)CN(C)C(=O)c1ccc2c(CNCc3ccc(F)cc3)c(-c3cc(Cc4ccccc4)[nH]n3)[nH]c2c1`, for which the 50% inhibitory concentration (IC50) in assay [1] came out at 0.5 µM.

These data come from ChEMBL document CHEMBL1165955, “Synthesis and biological evaluation of novel (4 or 5-aryl)pyrazolyl-indoles as inhibitors of interleukin-2 inducible T-cell kinase (ITK)” (Bioorg Med Chem, 2010).
